Laboratory results from patent publication US10774071B2, “PD-1/PD-L1 inhibitors” (Gilead Sciences, Inc., priority 2018, dated 2020).

Key:
PD-L1 = PD-L1 (Homo sapiens (Human), UniProt Q9NZQ7); assay: PD-L1/PD-L1 dimerization biochemical protein-protein interaction assay (ALPHA); format: binding; conditions: 0.5 nM His tagged PD-L1 and 0.5 nM FLAG tagged PD-L1, Table 4A, read-out: AC50 PDL1 Dimer 1 nM
PD-1/PD-L1 = PD-1/PD-L1 (Homo sapiens (Human), UniProt Q9NZQ7); assay: PD-1/PD-L1 biochemical protein-protein interaction assay (ALPHA); format: binding; conditions: 0.3 nM His tagged PD-L1, 2.5 nM biotinylated Fc-PD-1, readings of 0.064 nM are equal to or less than 0.064 nM, read-out: IC50 PD-L1-PD1
Procedure: Compounds were tested in biochemical protein-protein interaction assays to determine if they can specifically block the interaction between the extracellular domains of PD-1/PD-L1 or CTLA/CD80. Binding of the protein pairs is measured using a bead based Amplified Luminescent Proximity Homogeneous Assay (ALPHA) platform. […] Final protein concentration in the assays were 0.3 nM (His tagged PD-L1), 2.5 nM (biotinylated Fc-PD-1), 1 nM (His tagged CTLA4) and 1 nM (biotinylated CD80).

PD-L1, sequence (Q9NZQ7 19-238): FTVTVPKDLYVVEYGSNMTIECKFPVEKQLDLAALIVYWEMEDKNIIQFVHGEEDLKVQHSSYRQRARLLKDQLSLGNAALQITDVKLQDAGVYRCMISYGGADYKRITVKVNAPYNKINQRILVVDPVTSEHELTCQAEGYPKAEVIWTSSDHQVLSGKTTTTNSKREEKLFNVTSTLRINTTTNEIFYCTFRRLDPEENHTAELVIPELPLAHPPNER
PD-L1, sequence (Q9NZQ7 19-238): as above
PD-1/PD-L1, sequence (Q9NZQ7 19-238): as above

Row | Compound | AC50 (PD-L1) | IC50 (PD-1/PD-L1)
1 | COc1nc(-c2cccc(-c3cccc4c3CC[C@@H]4Nc3nc(OC)c(CN4CC5(CCC(=O)N5)C4)cc3Cl)c2Cl)ccc1CNC[C@@H]1CCC(=O)N1 [A-7] | 180 nM | 1.18 nM
2 | COc1nc(-c2cccc(-c3cccc4c3CC[C@@H]4Nc3nc(OC)c(CN4CC[C@@H](C(=O)O)C4)cc3Cl)c2Cl)ccc1CNC[C@@H]1CCC(=O)N1 [A-8] | 79.7 nM | ≤ 0.064 nM
3 | COc1nc(-c2cccc(-c3cccc4c3CC[C@@H]4Nc3nc(OC)c(CNC[C@@H]4CCC(=O)N4)cc3Cl)c2Cl)ccc1CNC[C@@H]1CCC(=O)N1 [A-9] | 150 nM | 1.66 nM
4 | COc1cc(N[C@H]2CCc3c(-c4cccc(-c5ccc(CNC[C@@H]6CCC(=O)N6)c(OC)n5)c4Cl)cccc32)c(C(F)(F)F)cc1CN1CC[C@H](C(=O)O)C1 [A-10] | 16.7 nM | ≤ 0.064 nM
5 | COc1cc(N[C@H]2CCc3c(-c4cccc(-c5ccc(CNC[C@@H]6CCC(=O)N6)c(OC)n5)c4Cl)cccc32)c(C(F)(F)F)cc1CN1CC[C@@H](C(=O)O)C1 [A-11] | 34.8 nM | ≤ 0.064 nM
6 | COc1cc(N[C@H]2CCc3c(-c4cccc(-c5ccc(CNC[C@@H]6CCC(=O)N6)c(OC)n5)c4Cl)cccc32)c(C(F)(F)F)cc1CN1CC2(C(=O)O)CCC1CC2 [A-12] | 26.4 nM | ≤ 0.064 nM
7 | COc1cc(N[C@H]2CCc3c(-c4cccc(-c5ccc(CNC[C@@H]6CCC(=O)N6)c(OC)n5)c4Cl)cccc32)c(Cl)cc1CN1CC2(C(=O)O)CCC1CC2 [A-13] | 48.8 nM | 0.065 nM
8 | COc1cc(N[C@H]2CCc3c(-c4cccc(-c5ccc(CNC[C@@H]6CCC(=O)N6)c(OC)n5)c4Cl)cccc32)c(Cl)cc1CN1CC[C@@](C)(C(=O)O)C1 [A-14, (R)-1-(5-chloro-4-(((S)-4-(2-chloro-3-(6-methoxy-5-(((((S)-5-oxopyrrolidin-2-yl)methyl)amino)methyl)pyridin-2-yl)phenyl)-2,3-dihydro-1H-inden-1-yl)amino)-2-methoxybenzyl)-3-methylpyrrolidine-3-carboxylic acid] | 30.4 nM | ≤ 0.064 nM
9 | COc1cc(N[C@H]2CCc3c(-c4cccc(-c5ccc(CNC[C@@H]6CCC(=O)N6)c(OC)n5)c4Cl)cccc32)c(Cl)cc1CN1CC[C@H](C(=O)O)C1 [A-15] | 51.6 nM | ≤ 0.064 nM
10 | COc1cc(N[C@H]2CCc3c(-c4cccc(-c5ccc(CNC[C@@H]6CCC(=O)N6)c(OC)n5)c4Cl)cccc32)c(Cl)cc1CN1CC[C@@H](C(=O)O)C1 [A-16] | 42.1 nM | ≤ 0.064 nM
11 | COc1nc(-c2cccc(-c3cccc4c3CC[C@@H]4Nc3nc(OC)c(CN)nc3C(F)(F)F)c2Cl)ccc1CNC[C@@H]1CCC(=O)N1 [A-17] | 13.9 nM | 0.077 nM
12 | COc1nc(-c2cccc(-c3cccc4c3CC[C@@H]4Nc3nc(OC)c(CN4CC[C@@H](C(=O)O)C4)nc3C(F)(F)F)c2Cl)ccc1CNC[C@@H]1CCC(=O)N1 [A-19] | 26.1 nM | ≤ 0.064 nM
13 | COc1nc(-c2cccc(-c3cccc4c3CC[C@@H]4Nc3nc(OC)c(CN4CC[C@@](C)(C(=O)O)C4)nc3C(F)(F)F)c2Cl)ccc1CNC[C@@H]1CCC(=O)N1 [A-20] | 29.1 nM | ≤ 0.064 nM
14 | COc1nc(-c2cccc(-c3cccc4c3CC[C@@H]4Nc3nc(OC)c(CNC4(C(=O)O)CCC4)cc3C(F)(F)F)c2Cl)ccc1CNCC1CCC(=O)N1 (stereo partly shown) [A-22] | 8.17 nM | ≤ 0.064 nM
15 | COc1nc(-c2cccc(-c3cccc4c3CC[C@@H]4Nc3nc(OC)c(CN4CC[C@@H](C(=O)O)C4)cc3C(F)(F)F)c2Cl)ccc1CN1CC2(CCC(=O)N2)C1 [A-24] | 38.8 nM | ≤ 0.064 nM
16 | COc1nc(-c2cccc(-c3cccc4c3CC[C@@H]4Nc3nc(OC)c(CN4CC[C@@H](C(=O)O)C4)cc3C(F)(F)F)c2Cl)ccc1CN1CC(C)(O)C1 [A-25] | 28.1 nM | ≤ 0.064 nM

Row | Compound | AC50 (PD-L1) | IC50 (PD-1/PD-L1)
17 | COc1nc(N[C@H]2CCc3c(-c4cccc(-c5ccc(CNC[C@@H]6CCC(=O)N6)c(OCC#N)n5)c4Cl)cccc32)c(C(F)(F)F)nc1CN1CC[C@@](C)(C(=O)O)C1 [A-26] | 13.4 nM | ≤ 0.064 nM
18 | COc1nc(N[C@H]2CCc3c(-c4cccc(-c5ccc(CNC[C@@H]6CCC(=O)N6)c(OCC#N)n5)c4Cl)cccc32)c(C(F)(F)F)cc1CN1CCC[C@@]1(C)C(=O)O [A-27] | 7.77 nM | ≤ 0.064 nM
19 | COc1nc(N[C@H]2CCc3c(-c4cccc(-c5ccc(CNC[C@@H]6CCC(=O)N6)c(OCC#N)n5)c4Cl)cccc32)c(C(F)(F)F)cc1CN1CCC[C@]1(C)C(=O)O [A-28] | 18.1 nM | ≤ 0.064 nM
20 | COc1nc(N[C@H]2CCc3c(-c4cccc(-c5ccc(CNC[C@@H]6CCC(=O)N6)c(OCC#N)n5)c4Cl)cccc32)c(C(F)(F)F)cc1CNC1(C(=O)O)CC1 [A-29] | 5.57 nM | ≤ 0.064 nM
21 | COc1cc(-c2cccc(-c3cccc4c3CC[C@@H]4Nc3nc(OC)c(CN(C)CC(=O)O)nc3C(F)(F)F)c2Cl)cc(F)c1CNC[C@@H]1CCC(=O)N1 [A-30] | 9.89 nM | ≤ 0.064 nM
22 | COc1cc(-c2cccc(-c3cccc4c3CC[C@@H]4Nc3nc(OC)c(CN4CC[C@@H](C(=O)O)C4)nc3C(F)(F)F)c2Cl)cc(F)c1CNC[C@@H]1CCC(=O)N1 [A-31] | 6.84 nM | ≤ 0.064 nM
23 | COc1cc(-c2cccc(-c3cccc4c3CC[C@@H]4Nc3nc(OC)c(CNC4(C(=O)O)CC4)nc3C(F)(F)F)c2Cl)cc(F)c1CNC[C@@H]1CCC(=O)N1 [A-32] | 12.5 nM | ≤ 0.064 nM
24 | COc1cc(-c2cccc(-c3cccc4c3CC[C@@H]4Nc3nc(OC)c(CN4CC5(C(=O)O)CCC4CC5)nc3C(F)(F)F)c2Cl)cc(F)c1CNC[C@@H]1CCC(=O)N1 [A-33] | 11.7 nM | ≤ 0.064 nM
25 | COc1nc(-c2cccc(-c3cccc4c3CC[C@@H]4Nc3nc(OC)c(CN(C)CC(=O)O)nc3C(F)(F)F)c2Cl)ccc1CNC[C@@H]1CCC(=O)N1 [A-34] | 8.26 nM | ≤ 0.064 nM
26 | COc1nc(-c2cccc(-c3cccc4c3CC[C@@H]4Nc3nc(OC)c(CN(C)CC(=O)O)cc3C(F)(F)F)c2Cl)ccc1CNC[C@@H]1CCC(=O)N1 [A-35] | 13.2 nM | ≤ 0.064 nM
27 | COc1cc(-c2cccc(-c3cccc4c3CC[C@@H]4Nc3nc(OC)c(CN4CC[C@@H](C(=O)O)C4)cc3C(F)(F)F)c2Cl)ccc1CNC[C@@H]1CCC(=O)N1 [A-36] | 2.05 nM | ≤ 0.064 nM
28 | COc1cc(N[C@H]2CCc3c(-c4cccc(-c5ccc(CNC[C@@H]6CCC(=O)N6)c(OC)n5)c4Cl)cccc32)c(C(F)(F)F)nc1CNC1(C(=O)O)CC1 [A-37] | 6.26 nM | ≤ 0.064 nM
29 | COc1nc(-c2cccc(-c3cccc4c3CC[C@@H]4Nc3nc(OC)c(CN4CCC[C@]4(C)C(=O)O)cc3C(F)(F)F)c2Cl)ccc1CNC[C@@H]1CCC(=O)N1 [A-38] | 16.9 nM | ≤ 0.064 nM
30 | COc1nc(-c2cccc(-c3cccc4c3CC[C@@H]4Nc3nc(OC)c(CN4CCC[C@@]4(C)C(=O)O)cc3C(F)(F)F)c2Cl)ccc1CNC[C@@H]1CCC(=O)N1 [A-39] | 17.8 nM | ≤ 0.064 nM
31 | COc1nc(-c2cccc(-c3cccc4c3CC[C@@H]4Nc3nc(OC)c(CNC(C)(C)C(=O)O)cc3C(F)(F)F)c2Cl)ccc1CNC[C@@H]1CCC(=O)N1 [A-40] | 6.81 nM | ≤ 0.064 nM
32 | COc1cc(N[C@H]2CCc3c(-c4cccc(-c5ccc(CNC[C@@H]6CCC(=O)N6)c(OC)n5)c4Cl)cccc32)c(C(F)(F)F)nc1CN1CC[C@@](C)(C(=O)O)C1 [A-42] | 12.6 nM | ≤ 0.064 nM
